Patent publication US20220220106A1, “QUINOLINE COMPOUNDS AND PHARMACEUTICAL COMPOSITIONS AND USES THEREOF” (Academy of Military Medical Sciences, priority 2019, published 2022)
Like-named read-outs stand apart in the source and are kept apart here.

What was measured:
[1] = system: Enterovirus 71 (EV71) H strain; test: In vitro anti-EV71 activity (antiviral activity in RD cells, CellTiter-Glo); assay type: cell-based; details: Enterovirus A, 96 h
Method in brief: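 RD cells infected with 100TCID50 EV71 in DMEM+2% FBS, with compound in 10-point three-fold dilutions, cultured 4 days at 37° C. Cell viability by CellTiter-Glo luminescence; inhibition rate relative to cell control fitted to S-curve for IC50. TD50 derived likewise; SI=TD50/IC50.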

mTORC2 = biological target: T1, mTORC2 (Homo sapiens, UniProt P42345); test: Western blot, phosphorylation of Ser473 of Akt in RD cells (mTORC2 inhibition); assay type: cell-based; details: 20 μM, 2 hours, Western blot (FIG. 1)
T1 construct: endogenous in cells; host or cells: RD cells
Description: In order to test the inhibitory activity of the synthesized compounds on the two mTOR complexes, the inhibitory activity experiments of mTORC1 and mTORC2 were carried out. Since mTORC1 and mTORC2 exerted their function by activating the phosphorylation of downstream substrates, the inhibitory activity of the compounds on mTORC1 and mTORC2 could be determined by detecting the phosphorylation levels of the Thr389 site of mTORC1 downstream substrate p70S6K1 and the Ser473 site of mTORC2 downstream substrate Akt.
Pretreatment of Compound:
(1) RD cells were cultured in DMEM medium containing 10% FBS and 1×PS (penicillin and streptomycin were at concentrations 100 IU and 100 μg/mL, respectively) at 37° C. and 5% CO2.
(2) The RD cells (5×10^5 cells/2 mL medium) were inoculated into a 6-well plate and incubated at 37° C. and 5% CO2 for 24 hours.
(3) The cells were washed once with PBS, and the cells were cultured in serum-free medium without nutrients overnight.
(4) Formulation of compounds: […]
Preparation of insulin medium: Insulin was diluted in DMEM medium containing 10% FBS and 1×PS so that the final concentration of insulin was 167 nM.
Pretreatment of compound to be tested: The compound was dissolved in DMSO so that the concentration of the test compound was 20 mM, and the compound was diluted in 167 nM insulin medium to reach a concentration of 20 μM.
Preparation of rapamycin solution: Rapamycin was dissolved in DMSO to a concentration of 10 mM, and the rapamycin was diluted in 167 nM insulin medium to reach a concentration of 20 μM.
(5) The serum-free medium in each well was removed.
(6) 2 mL of complete medium containing DMSO was added to each well as a control carrier. The final concentration of DMSO was 0.2%.
(7) 2 mL of 20 μM rapamycin solution and 20 μM the compound to be tested were added to the designated wells, respectively. The final concentration of DMSO was 0.2%.
(8) The cells were incubated for 2 hours at 37° C. and 5% CO2.
Protein extraction and concentration determination:
(1) The cells were washed once with refrigerated PBS, and then the PBS was discarded.
(2) 150 μL of cell extraction buffer (RIPA, […], catalog number: C1053) was transferred into each well to lyse the cells, and then the resulting cell solution were incubated on ice for 30 minutes.
(3) Centrifugation was performed at 14000 rpm (13000× g) for 30 minutes at 4° C.
(4) The supernatant was transferred into a new eppendorf tube, and the cell lysate was stored at −80° C. before testing.
(5) The protein concentration was determined by BCA method.
Preparation of Buffer Solutions:
(1) 100× Protease inhibitor (Beyotime, catalog number: P1005): 1 mL of redistilled water was added to the protease inhibitor and stirred gently until the solid was completely dissolved.
(2) Lysis Buffer: […] of 100× protease inhibitor and 2× phosphatase inhibitor Cocktails PhosSTOP (Beyotime, catalog number: P1082) were added to 100 mL of the cell extract, and stirred gently until it was completely dissolved.
(3) Electrophoresis Running Buffer:
10×MOPS buffer: 52.33 g of MOPS, 30.29 g of Tris base, 10 mL of 0.5 mol/L EDTA (pH 8.5) and 5 g of SDS was dissolved in 400 mL of redistilled water, stirred to dissolve, and the pH was adjusted to 7.5, then redistilled water was added again to reach a volume of 500 mL; 1×MOPS: 100 mL of 10×MOPS was diluted with redistilled water to 1000 mL.
(4) 1× Transfer Buffer: […] of 10× transfer buffer (144 g of glucine, 30.3 g of trisbase, and distilled water were mixed to reach a volume of 1 L) and 400 mL of methanol were dissolved in 1500 mL of redistilled water, and then the redistilled water was added to reach a volume of 2000 mL. […]

[2] = EV71 H strain, RD cells, 4 days, CellTiter-Glo, read-out: IC50

SMILES	IC50 ([1]; EV71, RD) [nM]	phosphorylation expression level of Akt (mTORC2)	IC50 [1, 2] [nM]
O=C(Nc1ccc(-c2ccc3ncc4ccc(=O)n(-c5cccc(C(F)(F)F)c5)c4c3c2)cn1)Oc1ccccc1 [HTL-7-15, 9-[3-(6-phenoxyamido)pyridyl]-2-oxo-1-[3-(trifluoromethyl)phenyl]-1,2-dihydrobenzo[h][1,6]naphthyridine]	90 ± 20	significantly down-regulate	
CN(C)c1ccc(-c2ccc3ncc4ccc(=O)n(-c5cccc(C(F)(F)F)c5)c4c3c2)cn1 [HTL-7-16, 9-[3-(6-N,N-dimethyl)pyridyl]-2-oxo-1-[3-(trifluoromethyl)phenyl]-1,2-dihydrobenzo[h][1,6]naphthyridine]		significantly down-regulate	90 ± 10
CN1CCN(c2ccc(-c3ccc4ncc5ccc(=O)n(-c6cccc(C(F)(F)F)c6)c5c4c3)cn2)CC1 [HTL-7-17, 9-{3-[6-(4-methylpiperazin-1-yl)pyridyl]}-2-oxo-1-[3-(trifluoromethyl)phenyl]-1,2-dihydrobenzo[h][1,6]naphthyridine]		significantly down-regulate	100 ± 30
O=c1ccc2cnc3ccc(-c4ccc(N5CCOCC5)nc4)cc3c2n1-c1cccc(C(F)(F)F)c1 [HTL-7-18, 9-[3-(6-morpholin-4-yl)pyridyl]-2-oxo-1-[3-(trifluoromethyl)phenyl]-1,2-dihydrobenzo[h][1,6]naphthyridine]		significantly down-regulate	1800 ± 1170
COc1cc(-c2ccc3ncc4ccc(=O)n(-c5cccc(C(F)(F)F)c5)c4c3c2)cnc1N [HTL-7-19, 9-[3-(6-amino-5-methoxy)pyridyl]-2-oxo-1-[3-(trifluoromethyl)phenyl]-1,2-dihydrobenzo[h][1,6]naphthyridine]		significantly down-regulate	45 ± 10
O=c1ccc2cnc3ccc(-c4ccc(N5CCCC5)nc4)cc3c2n1-c1cccc(C(F)(F)F)c1 [HTL-7-20, 9-[3-(6-pyrrolidinyl)pyridyl]-2-oxo-1-[3-(trifluoromethyl)phenyl]-1,2-dihydrobenzo[h][1,6]naphthyridine]		significantly down-regulate	100 ± 10
CC(C)(C)OC(=O)Nc1ccc(-c2ccc3ncc4ccc(=O)n(-c5cccc(C(F)(F)F)c5)c4c3c2)cn1 [HTL-7-21, 9-[3-(6-tert-butoxycarbonylamino)pyridyl]-2-oxo-1-[3-(trifluoromethyl)phenyl]-1,2-dihydrobenzo[h][1,6]naphthyridine]		significantly down-regulate	2080 ± 2290
